# What was measured:
# [1] = biological target: GDP-bound HRAS wild-type protein (Homo sapiens, UniProt P01112); experiment: Binding to HRAS by surface plasmon resonance (SPR), Single Cycle Kinetics; details: for HRAS/KRAS (ratio of KD value with respect to HRAS to KD value with respect to KRAS) / HRAS/KRAS (ratio of KD value for HRAS to KD value for KRAS): GDP-bound HRAS wild-type vs GDP-bound KRAS wild-type
# [2] = biological target: GDP-bound NRAS wild-type protein (Homo sapiens, UniProt P01111); experiment: Binding to NRAS by surface plasmon resonance (SPR), Single Cycle Kinetics; details: for NRAS/KRAS (ratio of KD value with respect to NRAS to KD value with respect to KRAS) / NRAS/KRAS (ratio of KD value for NRAS to KD value for KRAS): GDP-bound NRAS wild-type vs GDP-bound KRAS wild-type
# GDP-bound NRAS wild-type protein, sequence (P01111 whole entry): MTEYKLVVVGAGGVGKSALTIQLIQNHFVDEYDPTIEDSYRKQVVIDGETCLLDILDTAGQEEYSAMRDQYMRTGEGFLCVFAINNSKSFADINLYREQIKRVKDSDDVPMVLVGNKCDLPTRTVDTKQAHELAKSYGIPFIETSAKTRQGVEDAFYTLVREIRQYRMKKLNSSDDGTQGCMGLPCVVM
# [3] = SPR, GDP-bound wild-type proteins
# GDP-bound HRAS wild-type protein, sequence (P01112 whole entry): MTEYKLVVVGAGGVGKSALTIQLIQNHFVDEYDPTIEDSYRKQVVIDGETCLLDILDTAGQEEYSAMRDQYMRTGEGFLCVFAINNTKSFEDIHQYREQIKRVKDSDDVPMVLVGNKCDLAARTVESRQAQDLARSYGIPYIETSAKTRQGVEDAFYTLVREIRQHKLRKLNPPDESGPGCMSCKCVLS
structure (smiles),measurement,setting,value
CCO[C@@H]1C[C@H]2C(=O)NC3(CC(C)(C)C3)C(=O)N(C)[C@@H](C(CC)CC)C(=O)N(C)[C@H](C(=O)N(C)C)CC(=O)N(C)[C@@H](CC3CC3)C(=O)N[C@@H]([C@@H](C)CC)C(=O)N(C)CC(=O)N(C)[C@H]3C/C=C\CCN(C3=O)[C@@H](CC3CCC(F)(F)CC3)C(=O)N(C)CC(=O)N[C@@H](CCc3ccc(C(F)(F)F)c(Cl)c3)C(=O)N2C1 [PP2495],HRAS/KRAS (ratio of KD value with respect to HRAS to KD value with respect to KRAS),[1]; SPR,A (a compound having 10 or more and less than 20 is denoted as A)
same,NRAS/KRAS (ratio of KD value with respect to NRAS to KD value with respect to KRAS),[2]; SPR,A (a compound having 10 or more and less than 20 is denoted as A)
CCO[C@@H]1C[C@H]2C(=O)NC3(CC(C)(C)C3)C(=O)N(C)[C@@H](C(CC)CC)C(=O)N(C)[C@H](C(=O)N(C)C)CC(=O)N(C)[C@@H](COC)C(=O)N[C@@H]([C@@H](C)CC)C(=O)N(C)CC(=O)N(C)[C@H]3C/C=C\CCN(C3=O)[C@@H](CC3CCCCC3)C(=O)N(C)CC(=O)N[C@@H](CCc3ccc(C(F)(F)F)c(Cl)c3)C(=O)N2C1 [PP2468],HRAS/KRAS (ratio of KD value with respect to HRAS to KD value with respect to KRAS),[1]; SPR,A (a compound having 10 or more and less than 20 is denoted as A)
same,NRAS/KRAS (ratio of KD value with respect to NRAS to KD value with respect to KRAS),[2]; SPR,AA (a compound having 20 or more is denoted as AA)
CCC(CC)[C@H]1C(=O)N(C)[C@H](C(=O)N(C)C)CC(=O)N(C)[C@@H](COC)C(=O)N[C@@H]([C@@H](C)CC)C(=O)N(C)CC(=O)N(C)[C@H]2C/C=C\CCN(C2=O)[C@@H](Cc2ccc(C(F)(F)F)cc2)C(=O)N(C)CC(=O)N[C@@H](CCc2ccc(Cl)c(Cl)c2)C(=O)N2C[C@H](OC3CCCC3)C[C@H]2C(=O)NC2(CC(C)(C)C2)C(=O)N1C [PP2648],HRAS/KRAS (ratio of KD value with respect to GDP-bound HRAS wild-type protein to KD value with respect to KRAS),[1]; class symbols,A (a compound having 10 or more and less than 20 is denoted as A)
same,NRAS/KRAS (ratio of KD value with respect to GDP-bound NRAS wild-type protein to KD value with respect to KRAS),[2]; class symbols,A (a compound having 10 or more and less than 20 is denoted as A)
CCCO[C@@H]1C[C@H]2C(=O)N(C)C3(CC(C)(C)C3)C(=O)N(C)[C@@H](C(CC)CC)C(=O)N(C)[C@H](C(=O)N(C)C)CC(=O)N(C)[C@@H](COC)C(=O)N[C@@H]([C@@H](C)CC)C(=O)N(C)CC(=O)N(C)[C@H]3C/C=C\CCN(C3=O)[C@@H](Cc3ccc(C)cc3)C(=O)N(C)CC(=O)N[C@@H](CCc3ccc(Cl)c(Cl)c3)C(=O)N2C1 [PP2812],HRAS/KRAS (ratio of KD value with respect to GDP-bound HRAS wild-type protein to KD value with respect to KRAS),[1]; class symbols,A (a compound having 10 or more and less than 20 is denoted as A)
same,NRAS/KRAS (ratio of KD value with respect to GDP-bound NRAS wild-type protein to KD value with respect to KRAS),[2]; class symbols,AA (a compound having 20 or more is denoted as AA)
CCCOC[C@H]1C(=O)N[C@@H]([C@@H](C)CC)C(=O)N(C)CC(=O)N(C)[C@H]2C/C=C\CCN(C2=O)[C@@H](Cc2ccc(C)cc2)C(=O)N(C)CC(=O)N[C@@H](CCc2cc(F)c(C(F)(F)F)c(F)c2)C(=O)N2C[C@H](CCC)C[C@H]2C(=O)NC2(CCCC2)C(=O)N(C)[C@@H](C2CCCC2)C(=O)N(C)[C@H](C(=O)N(C)C)CC(=O)N1C [PP2229],HRAS/KRAS (ratio of KD value with respect to HRAS to KD value with respect to KRAS),[1]; SPR,A (a compound having 10 or more and less than 20 is denoted as A)
same,NRAS/KRAS (ratio of KD value with respect to NRAS to KD value with respect to KRAS),[2]; SPR,A (a compound having 10 or more and less than 20 is denoted as A)
CCC[C@H]1C(=O)N[C@@H]([C@@H](C)CC)C(=O)N(C)CC(=O)N(C)[C@H]2C/C=C\CCN(C2=O)[C@@H](Cc2ccc(C)cc2)C(=O)N(C)CC(=O)N[C@@H](CCc2ccc(C(F)(F)F)c(OC)c2)C(=O)N2C[C@H](OCC)C[C@H]2C(=O)NC2(CC(C)(C)C2)C(=O)N(C)[C@@H](CC(F)(F)F)C(=O)N(C)[C@H](C(=O)N(C)C)CC(=O)N1C [PP3007],HRAS/KRAS (ratio of KD value with respect to GDP-bound HRAS wild-type protein to KD value with respect to KRAS),[1]; [3],A (a compound having 10 or more and less than 20 is denoted as A)
same,NRAS/KRAS (ratio of KD value with respect to GDP-bound NRAS wild-type protein to KD value with respect to KRAS),[2]; [3],A (a compound having 10 or more and less than 20 is denoted as A)
CCC[C@H]1C(=O)N[C@@H]([C@@H](C)CC)C(=O)N2CCC[C@H]2C(=O)N(C)[C@H]2C/C=C\CCN(C2=O)[C@@H](Cc2ccc(C(F)(F)F)cc2)C(=O)N(C)CC(=O)N[C@@H](CCc2cc(F)c(C(F)(F)F)c(F)c2)C(=O)N2C[C@H](OCC)C[C@H]2C(=O)N(C)C2(CCC2)C(=O)N(C)[C@@H](C2CCCC2)C(=O)N(C)[C@H](C(=O)N2CCCCC2)CC(=O)N1C [PP3114],HRAS/KRAS (ratio of KD value with respect to GDP-bound HRAS wild-type protein to KD value with respect to KRAS),[1]; [3],A (a compound having 10 or more and less than 20 is denoted as A)
same,NRAS/KRAS (ratio of KD value with respect to GDP-bound NRAS wild-type protein to KD value with respect to KRAS),[2]; [3],AA (a compound having 20 or more is denoted as AA)
CCCN(C)C(=O)[C@@H]1CC(=O)N(C)[C@@H](C2CCC2)C(=O)N[C@@H]([C@@H](C)CC)C(=O)N(C)CC(=O)N(C)[C@H]2C/C=C\CCN(C2=O)[C@@H](Cc2ccc(C(F)(F)F)cc2)C(=O)N(C)CC(=O)N[C@@H](CCc2cc(F)c(C(F)(F)F)c(F)c2)C(=O)N2C[C@@H](C)C[C@H]2C(=O)NC2(CCC2)C(=O)N(C)[C@@H](C2CCCC2)C(=O)N1C [PP2083],HRAS/KRAS (ratio of KD value with respect to HRAS to KD value with respect to KRAS),[1]; SPR,B (a compound having 3 or more and less than 10 is denoted as B)
same,NRAS/KRAS (ratio of KD value with respect to NRAS to KD value with respect to KRAS),[2]; SPR,A (a compound having 10 or more and less than 20 is denoted as A)
CC[C@H](C)[C@@H]1NC(=O)[C@H](CC)N(C)C(=O)C[C@@H](C(=O)N(C)C)N(C)C(=O)[C@H](C2CCCC2)N(C)C(=O)C2(CCC2)NC(=O)[C@H](C)N(C)C(=O)[C@H](CCc2cc(F)c(C(F)(F)F)c(F)c2)NC(=O)CN(C)C(=O)[C@H](Cc2ccc(C(F)(F)F)cc2)N2CC/C=C\C[C@@H](C2=O)N(C)C(=O)CN(C)C1=O [PP1146],HRAS/KRAS (ratio of KD value with respect to HRAS to KD value with respect to KRAS),"[1]; KD ratio, SPR",B (a compound having 3 or more and less than 10 is denoted as B)
same,NRAS/KRAS (ratio of KD value with respect to NRAS to KD value with respect to KRAS),"[2]; KD ratio, SPR",A (a compound having 10 or more and less than 20 is denoted as A)
CCO[C@@H]1C[C@H]2C(=O)NC3(CCC3)C(=O)N(C)[C@@H](C3CCCC3)C(=O)N(C)[C@H](C(=O)N3CCOCC3)CC(=O)N(C)[C@@H](CC(C)C)C(=O)N[C@@H]([C@@H](C)CC)C(=O)N(C)CC(=O)N(C)[C@H]3CCCCCN(C3=O)[C@@H](Cc3ccc(F)c(F)c3)C(=O)N(C)CC(=O)N[C@@H](CCc3cc(F)c(C(F)(F)F)c(F)c3)C(=O)N2C1 [PP0917],HRAS/KRAS (ratio of KD value with respect to HRAS to KD value with respect to KRAS),"[1]; KD ratio, SPR",B (a compound having 3 or more and less than 10 is denoted as B)
same,NRAS/KRAS (ratio of KD value with respect to NRAS to KD value with respect to KRAS),"[2]; KD ratio, SPR",B (a compound having 3 or more and less than 10 is denoted as B)
CCO[C@@H]1C[C@H]2C(=O)NC3(CC(C)(C)C3)C(=O)N(C)[C@@H](C3CCCC3)C(=O)N(C)[C@H](C(=O)N(C)C)CC(=O)N(C)[C@@H](CC)C(=O)N[C@@H]([C@@H](C)CC)C(=O)N(C)CC(=O)N(C)[C@H]3C/C=C\CCN(C3=O)[C@@H](Cc3ccc(C(F)(F)F)cc3)C(=O)N(C)CC(=O)N[C@@H](CCc3ccc(C(F)(F)F)c(Cl)c3)C(=O)N2C1 [PP1746],HRAS/KRAS (ratio of KD value for HRAS to KD value for KRAS),"[1]; KD ratio, SPR",A (a compound having 10 or more and less than 20 is denoted as A)
same,NRAS/KRAS (ratio of KD value for NRAS to KD value for KRAS),"[2]; KD ratio, SPR",A (a compound having 10 or more and less than 20 is denoted as A)
CCO[C@@H]1C[C@H]2C(=O)NC3(CCC3)C(=O)N(C)[C@@H](C3CCCC3)C(=O)N(C)[C@H](C(=O)N(C)C)CC(=O)N(C)[C@@H](CC)C(=O)N[C@@H]([C@@H](C)CC)C(=O)N3CCSC[C@H]3C(=O)N(C)[C@H]3C/C=C\CCN(C3=O)[C@@H](Cc3ccc(C(F)(F)F)cc3)C(=O)N(C)CC(=O)N[C@@H](CCc3cc(F)c(C(F)(F)F)c(F)c3)C(=O)N2C1 [PP1060],HRAS/KRAS (ratio of KD value with respect to HRAS to KD value with respect to KRAS),"[1]; KD ratio, SPR",A (a compound having 10 or more and less than 20 is denoted as A)
same,NRAS/KRAS (ratio of KD value with respect to NRAS to KD value with respect to KRAS),"[2]; KD ratio, SPR",A (a compound having 10 or more and less than 20 is denoted as A)
CCC[C@H]1C(=O)N[C@@H](C2CCCCC2)C(=O)N(C)CC(=O)N(C)[C@H]2C/C=C\CCN(C2=O)[C@@H](Cc2ccc(C)cc2)C(=O)N(C)CC(=O)N[C@@H](CCc2ccc(C(F)(F)F)c(Cl)c2)C(=O)N2C[C@H](OCC)C[C@H]2C(=O)NC2(CC(C)(C)C2)C(=O)N(C)[C@@H](CC(C)C)C(=O)N(C)[C@H](C(=O)N(C)C)CC(=O)N1C [PP3021],HRAS/KRAS (ratio of KD value with respect to GDP-bound HRAS wild-type protein to KD value with respect to KRAS),[1]; [3],A (a compound having 10 or more and less than 20 is denoted as A)
same,NRAS/KRAS (ratio of KD value with respect to GDP-bound NRAS wild-type protein to KD value with respect to KRAS),[2]; [3],AA (a compound having 20 or more is denoted as AA)
CCO[C@@H]1C[C@H]2C(=O)NC3(CC(C)(C)C3)C(=O)N(C)[C@@H](C3CCCC3)C(=O)N(C)[C@H](C(=O)N(C)CC)CC(=O)N(C)[C@@H](CC(F)F)C(=O)N[C@@H]([C@@H](C)CC)C(=O)N(C)CC(=O)N(C)[C@H]3C/C=C\CCN(C3=O)[C@@H](Cc3ccc(C(F)(F)F)cc3)C(=O)N(C)CC(=O)N[C@@H](CCc3ccc(C(F)(F)F)c(OC)c3)C(=O)N2C1 [PP1655],HRAS/KRAS (ratio of KD value for HRAS to KD value for KRAS),"[1]; KD ratio, SPR",A (a compound having 10 or more and less than 20 is denoted as A)
same,NRAS/KRAS (ratio of KD value for NRAS to KD value for KRAS),"[2]; KD ratio, SPR",A (a compound having 10 or more and less than 20 is denoted as A)
CCCOC[C@H]1C(=O)N[C@@H]([C@@H](C)CC)C(=O)N(C)CC(=O)N(C)[C@H]2C/C=C\CCN(C2=O)[C@@H](Cc2ccc(C)cc2)C(=O)N(C)CC(=O)N[C@@H](CCc2cc(F)c(C(F)(F)F)c(F)c2)C(=O)N2C[C@H](C)C[C@H]2C(=O)NC2(CCCC2)C(=O)N(C)[C@@H](C2CCCC2)C(=O)N(C)[C@H](C(=O)N(C)C)CC(=O)N1C [PP2225],HRAS/KRAS (ratio of KD value with respect to HRAS to KD value with respect to KRAS),[1]; SPR,A (a compound having 10 or more and less than 20 is denoted as A)
same,NRAS/KRAS (ratio of KD value with respect to NRAS to KD value with respect to KRAS),[2]; SPR,A (a compound having 10 or more and less than 20 is denoted as A)
